{"source": "the kinase profiling compilation of Christmann-Franck et al. (2016)", "test_in_all_cases": "Caliper, Mobility shift assay off-chip", "key": {"[1]": {"molecular_target": "MAPK9 (human) (UniProt P45984)", "sequence (P45984 whole entry, looked up)": "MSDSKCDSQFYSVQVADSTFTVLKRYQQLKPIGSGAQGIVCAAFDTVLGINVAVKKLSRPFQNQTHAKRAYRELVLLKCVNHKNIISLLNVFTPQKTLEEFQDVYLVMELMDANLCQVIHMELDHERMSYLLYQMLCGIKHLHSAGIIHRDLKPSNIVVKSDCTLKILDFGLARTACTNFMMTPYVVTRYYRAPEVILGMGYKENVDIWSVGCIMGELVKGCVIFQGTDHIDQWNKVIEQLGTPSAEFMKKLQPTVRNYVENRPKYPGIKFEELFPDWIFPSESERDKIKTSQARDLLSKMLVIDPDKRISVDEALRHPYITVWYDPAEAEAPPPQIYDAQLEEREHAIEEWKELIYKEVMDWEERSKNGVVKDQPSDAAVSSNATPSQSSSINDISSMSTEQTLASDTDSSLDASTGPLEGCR"}, "[2]": {"molecular_target": "HIPK3 (human) (UniProt Q9H422)"}, "[3]": {"molecular_target": "DAPK1 (human) (UniProt P53355)"}, "[4]": {"molecular_target": "FGFR4 (human) (UniProt P22455)"}, "[5]": {"molecular_target": "CDK2 (human) (UniProt P24941)"}, "[6]": {"molecular_target": "CSNK1G1 (human) (UniProt Q9HCP0)"}, "[7]": {"molecular_target": "EPHA4 (human) (UniProt P54764)"}, "[8]": {"molecular_target": "PRKD3 (human) (UniProt O94806)"}, "[9]": {"molecular_target": "PDK2 (human) (UniProt Q15119)"}, "[10]": {"molecular_target": "EPHB4 (human) (UniProt P54760)"}, "[11]": {"molecular_target": "CLK3 (human) (UniProt P49761)", "sequence (P49761 whole entry, looked up)": "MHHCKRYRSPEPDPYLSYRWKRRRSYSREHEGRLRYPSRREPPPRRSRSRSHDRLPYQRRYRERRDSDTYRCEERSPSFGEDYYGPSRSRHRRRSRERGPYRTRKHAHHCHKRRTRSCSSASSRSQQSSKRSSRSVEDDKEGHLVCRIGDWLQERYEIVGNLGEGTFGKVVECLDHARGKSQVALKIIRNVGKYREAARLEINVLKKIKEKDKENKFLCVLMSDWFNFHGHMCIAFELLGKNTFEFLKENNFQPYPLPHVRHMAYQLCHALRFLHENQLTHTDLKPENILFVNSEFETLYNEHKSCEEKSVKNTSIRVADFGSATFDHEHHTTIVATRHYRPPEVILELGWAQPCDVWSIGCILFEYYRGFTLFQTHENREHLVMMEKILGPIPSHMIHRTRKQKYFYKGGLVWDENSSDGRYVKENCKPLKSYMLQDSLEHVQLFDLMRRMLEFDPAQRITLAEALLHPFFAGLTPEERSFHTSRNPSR"}, "[12]": {"molecular_target": "IKBKE (human) (UniProt Q14164)"}, "[13]": {"molecular_target": "EPHB3 (human) (UniProt P54753)"}, "[14]": {"molecular_target": "CSNK1G2 (human) (UniProt P78368)"}, "[15]": {"molecular_target": "MST4 (human) (UniProt Q9P289)"}, "[16]": {"molecular_target": "DCLK2 (human) (UniProt Q8N568)"}, "[17]": {"molecular_target": "MAPKAPK3 (human) (UniProt Q16644)", "sequence (Q16644 whole entry, looked up)": "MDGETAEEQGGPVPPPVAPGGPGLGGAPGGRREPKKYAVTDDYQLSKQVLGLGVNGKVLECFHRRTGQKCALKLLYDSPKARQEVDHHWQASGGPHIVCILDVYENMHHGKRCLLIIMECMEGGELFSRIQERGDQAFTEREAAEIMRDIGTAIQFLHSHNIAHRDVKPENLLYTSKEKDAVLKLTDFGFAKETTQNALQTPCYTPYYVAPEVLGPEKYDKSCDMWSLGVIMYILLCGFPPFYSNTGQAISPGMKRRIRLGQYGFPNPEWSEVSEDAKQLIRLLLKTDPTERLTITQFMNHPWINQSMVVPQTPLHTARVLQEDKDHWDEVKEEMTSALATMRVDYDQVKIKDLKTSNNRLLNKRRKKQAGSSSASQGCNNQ"}, "[18]": {"molecular_target": "CAMK2D (human) (UniProt Q13557)"}, "[19]": {"molecular_target": "SYK (human) (UniProt P43405)"}, "[20]": {"molecular_target": "ABL2 (human) (UniProt P42684)"}, "[21]": {"molecular_target": "CAMK1 (human) (UniProt Q14012)"}, "[22]": {"molecular_target": "CSNK2A2 (human) (UniProt P19784)", "sequence (P19784 whole entry, looked up)": "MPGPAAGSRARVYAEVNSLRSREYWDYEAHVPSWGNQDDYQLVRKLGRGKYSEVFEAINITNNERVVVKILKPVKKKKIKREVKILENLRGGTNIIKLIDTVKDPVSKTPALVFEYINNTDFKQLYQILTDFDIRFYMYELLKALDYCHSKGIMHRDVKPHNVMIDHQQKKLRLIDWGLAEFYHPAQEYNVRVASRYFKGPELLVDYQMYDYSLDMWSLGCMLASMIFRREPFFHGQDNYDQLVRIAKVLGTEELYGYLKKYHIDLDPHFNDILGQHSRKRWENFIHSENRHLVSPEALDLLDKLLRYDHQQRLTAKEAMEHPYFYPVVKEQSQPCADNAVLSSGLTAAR"}, "[23]": {"molecular_target": "STK38 (human) (UniProt Q15208)"}, "[24]": {"molecular_target": "CDK1 (human) (UniProt P06493)", "sequence (P06493 whole entry, looked up)": "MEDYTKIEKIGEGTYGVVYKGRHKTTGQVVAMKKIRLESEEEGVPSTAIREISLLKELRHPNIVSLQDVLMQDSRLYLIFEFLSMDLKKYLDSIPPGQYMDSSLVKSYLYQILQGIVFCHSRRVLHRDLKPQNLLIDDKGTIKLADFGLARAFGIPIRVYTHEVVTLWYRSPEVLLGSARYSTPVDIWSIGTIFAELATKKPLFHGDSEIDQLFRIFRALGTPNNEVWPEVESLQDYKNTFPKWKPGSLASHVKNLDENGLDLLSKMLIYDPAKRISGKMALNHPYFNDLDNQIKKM"}, "[25]": {"molecular_target": "MUSK (human) (UniProt O15146)"}, "[26]": {"molecular_target": "CSK (human) (UniProt P41240)", "sequence (P41240 whole entry, looked up)": "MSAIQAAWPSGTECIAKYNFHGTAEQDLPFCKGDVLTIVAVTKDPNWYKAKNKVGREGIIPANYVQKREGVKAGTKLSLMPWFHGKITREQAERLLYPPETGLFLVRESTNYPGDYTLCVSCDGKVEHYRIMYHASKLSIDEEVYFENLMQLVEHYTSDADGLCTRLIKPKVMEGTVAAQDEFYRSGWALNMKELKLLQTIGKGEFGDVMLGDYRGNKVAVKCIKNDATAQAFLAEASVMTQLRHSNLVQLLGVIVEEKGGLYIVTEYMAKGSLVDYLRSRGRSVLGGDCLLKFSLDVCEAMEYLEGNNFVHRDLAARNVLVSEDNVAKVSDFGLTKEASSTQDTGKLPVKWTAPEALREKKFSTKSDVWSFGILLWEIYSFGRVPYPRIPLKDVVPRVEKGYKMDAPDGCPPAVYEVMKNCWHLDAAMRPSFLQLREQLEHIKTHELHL"}, "[27]": {"molecular_target": "SLK (human) (UniProt Q9H2G2)", "sequence (Q9H2G2 whole entry, looked up)": "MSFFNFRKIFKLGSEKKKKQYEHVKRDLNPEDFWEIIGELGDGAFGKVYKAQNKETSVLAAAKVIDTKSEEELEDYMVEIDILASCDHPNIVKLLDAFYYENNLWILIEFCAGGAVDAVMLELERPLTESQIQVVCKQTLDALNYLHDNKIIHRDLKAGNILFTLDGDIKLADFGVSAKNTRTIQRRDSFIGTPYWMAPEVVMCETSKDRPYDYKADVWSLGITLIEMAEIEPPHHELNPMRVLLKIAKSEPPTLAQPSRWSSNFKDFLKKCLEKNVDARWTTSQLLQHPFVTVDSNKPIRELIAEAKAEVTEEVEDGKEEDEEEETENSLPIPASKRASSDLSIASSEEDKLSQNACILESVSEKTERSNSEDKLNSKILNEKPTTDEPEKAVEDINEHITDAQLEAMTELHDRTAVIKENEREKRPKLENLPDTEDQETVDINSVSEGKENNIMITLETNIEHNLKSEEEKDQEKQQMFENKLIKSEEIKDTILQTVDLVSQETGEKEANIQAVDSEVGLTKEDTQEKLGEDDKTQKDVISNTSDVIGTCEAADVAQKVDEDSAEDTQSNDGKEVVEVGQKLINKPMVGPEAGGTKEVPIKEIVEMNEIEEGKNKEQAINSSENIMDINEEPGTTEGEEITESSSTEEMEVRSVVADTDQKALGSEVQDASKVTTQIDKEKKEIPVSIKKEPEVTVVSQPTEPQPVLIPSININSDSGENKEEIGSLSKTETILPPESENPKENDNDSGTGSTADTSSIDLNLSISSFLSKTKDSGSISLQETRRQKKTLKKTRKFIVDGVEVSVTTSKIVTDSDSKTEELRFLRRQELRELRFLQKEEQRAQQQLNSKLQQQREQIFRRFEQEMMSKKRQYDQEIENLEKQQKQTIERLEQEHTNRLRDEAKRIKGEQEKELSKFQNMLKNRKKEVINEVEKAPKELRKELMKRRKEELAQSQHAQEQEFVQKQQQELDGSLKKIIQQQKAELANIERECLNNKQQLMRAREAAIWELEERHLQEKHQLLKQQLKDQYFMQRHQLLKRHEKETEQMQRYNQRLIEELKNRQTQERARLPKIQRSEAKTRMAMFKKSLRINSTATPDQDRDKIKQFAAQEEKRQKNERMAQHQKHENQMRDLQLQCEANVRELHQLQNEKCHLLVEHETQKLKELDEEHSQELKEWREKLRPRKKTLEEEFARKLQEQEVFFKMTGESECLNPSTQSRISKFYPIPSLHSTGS"}, "[28]": {"molecular_target": "DYRK1B (human) (UniProt Q9Y463)", "sequence (Q9Y463 whole entry, looked up)": "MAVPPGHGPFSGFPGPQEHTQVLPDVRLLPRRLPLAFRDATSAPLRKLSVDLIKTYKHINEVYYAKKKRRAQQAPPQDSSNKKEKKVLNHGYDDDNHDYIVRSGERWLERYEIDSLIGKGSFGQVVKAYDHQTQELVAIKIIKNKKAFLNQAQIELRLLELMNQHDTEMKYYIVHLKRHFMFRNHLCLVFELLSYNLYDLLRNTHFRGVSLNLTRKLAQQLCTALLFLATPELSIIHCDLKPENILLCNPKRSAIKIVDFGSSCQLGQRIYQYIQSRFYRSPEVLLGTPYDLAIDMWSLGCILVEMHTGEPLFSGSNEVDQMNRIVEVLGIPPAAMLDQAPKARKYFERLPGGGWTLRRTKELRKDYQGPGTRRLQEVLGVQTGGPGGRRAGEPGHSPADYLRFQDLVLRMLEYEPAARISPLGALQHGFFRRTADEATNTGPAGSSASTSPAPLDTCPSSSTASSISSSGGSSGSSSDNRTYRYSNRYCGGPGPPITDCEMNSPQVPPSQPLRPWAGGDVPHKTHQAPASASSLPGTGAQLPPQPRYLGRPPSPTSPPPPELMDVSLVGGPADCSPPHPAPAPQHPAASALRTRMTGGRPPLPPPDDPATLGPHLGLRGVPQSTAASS"}, "[29]": {"molecular_target": "BRSK1 (human) (UniProt Q8TDC3)"}, "[30]": {"molecular_target": "GSG2 (human) (UniProt Q8TF76)"}, "[31]": {"molecular_target": "IRAK1 (human) (UniProt P51617)"}, "[32]": {"molecular_target": "BLK (human) (UniProt P51451)"}, "[33]": {"molecular_target": "AKT2 (human) (UniProt P31751)", "sequence (P31751 whole entry, looked up)": "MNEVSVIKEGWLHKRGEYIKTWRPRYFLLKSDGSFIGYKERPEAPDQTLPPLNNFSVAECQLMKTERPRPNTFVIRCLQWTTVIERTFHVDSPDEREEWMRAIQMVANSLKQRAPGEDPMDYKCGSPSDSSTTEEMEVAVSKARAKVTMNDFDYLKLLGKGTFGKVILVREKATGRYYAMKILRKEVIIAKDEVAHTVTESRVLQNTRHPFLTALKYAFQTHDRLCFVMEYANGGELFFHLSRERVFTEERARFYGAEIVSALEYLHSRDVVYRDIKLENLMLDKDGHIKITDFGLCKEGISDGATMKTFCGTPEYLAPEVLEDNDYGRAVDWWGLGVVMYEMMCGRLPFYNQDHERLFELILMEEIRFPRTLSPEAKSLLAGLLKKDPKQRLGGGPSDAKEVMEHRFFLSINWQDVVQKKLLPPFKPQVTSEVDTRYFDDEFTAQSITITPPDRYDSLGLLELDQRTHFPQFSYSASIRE"}, "[34]": {"molecular_target": "PRKACG (human) (UniProt P22612)"}}, "note": "“And” between values parts separate entries of the source, which are not always exact repeats. Identical values can stand only once.", "data": [{"compound": "COc1cc2c(Oc3ccc4[nH]c(C)cc4c3F)ncnc2cc1OCCCN1CCCC1", "values": [{"measurement": "inhibition", "setting": "[1]; compound 0.02 µM", "value": -9.4, "unit": "%"}, {"measurement": "inhibition", "setting": "[1]; compound 0.2 µM", "value": -7.7, "unit": "%"}, {"measurement": "inhibition", "setting": "[2]; compound 0.02 µM", "value": -6.3, "unit": "%"}, {"measurement": "inhibition", "setting": "[2]; compound 0.2 µM", "value": 0.5, "unit": "%"}, {"measurement": "inhibition", "setting": "[3]; compound 0.02 µM", "value": -5.9, "unit": "%"}, {"measurement": "inhibition", "setting": "[3]; compound 0.2 µM", "value": 7.4, "unit": "%"}, {"measurement": "inhibition", "setting": "[4]; compound 0.02 µM", "value": 3.2, "unit": "%"}, {"measurement": "inhibition", "setting": "[4]; compound 0.2 µM", "value": 22.3, "unit": "%"}, {"measurement": "inhibition", "setting": "[5]; compound 0.02 µM", "value": "1% and -0.2%"}, {"measurement": "inhibition", "setting": "[5]; compound 0.2 µM", "value": "-3% and -3.9%"}, {"measurement": "inhibition", "setting": "[6]; compound 0.02 µM", "value": -2, "unit": "%"}, {"measurement": "inhibition", "setting": "[6]; compound 0.2 µM", "value": -0.6, "unit": "%"}, {"measurement": "inhibition", "setting": "[7]; compound 0.02 µM", "value": -4.1, "unit": "%"}, {"measurement": "inhibition", "setting": "[7]; compound 0.2 µM", "value": -2.4, "unit": "%"}, {"measurement": "inhibition", "setting": "[8]; compound 0.02 µM", "value": -1, "unit": "%"}, {"measurement": "inhibition", "setting": "[8]; compound 0.2 µM", "value": -2.5, "unit": "%"}, {"measurement": "inhibition", "setting": "[9]; compound 0.02 µM", "value": -2.7, "unit": "%"}, {"measurement": "inhibition", "setting": "[9]; compound 0.2 µM", "value": -4.9, "unit": "%"}, {"measurement": "inhibition", "setting": "[10]; compound 0.02 µM", "value": -0.5, "unit": "%"}, {"measurement": "inhibition", "setting": "[10]; compound 0.2 µM", "value": 23.3, "unit": "%"}, {"measurement": "inhibition", "setting": "[11]; compound 0.02 µM", "value": 11.9, "unit": "%"}, {"measurement": "inhibition", "setting": "[11]; compound 0.2 µM", "value": -4.2, "unit": "%"}, {"measurement": "inhibition", "setting": "[12]; compound 0.02 µM", "value": -6.2, "unit": "%"}, {"measurement": "inhibition", "setting": "[12]; compound 0.2 µM", "value": -5.1, "unit": "%"}, {"measurement": "inhibition", "setting": "[13]; compound 0.02 µM", "value": -2.6, "unit": "%"}, {"measurement": "inhibition", "setting": "[13]; compound 0.2 µM", "value": -1.3, "unit": "%"}, {"measurement": "inhibition", "setting": "[14]; compound 0.02 µM", "value": -0.7, "unit": "%"}, {"measurement": "inhibition", "setting": "[14]; compound 0.2 µM", "value": -2.1, "unit": "%"}, {"measurement": "inhibition", "setting": "[15]; compound 0.02 µM", "value": -7.3, "unit": "%"}, {"measurement": "inhibition", "setting": "[15]; compound 0.2 µM", "value": -3, "unit": "%"}, {"measurement": "inhibition", "setting": "[16]; compound 0.02 µM", "value": -1.8, "unit": "%"}, {"measurement": "inhibition", "setting": "[16]; compound 0.2 µM", "value": -0.5, "unit": "%"}, {"measurement": "inhibition", "setting": "[17]; compound 0.02 µM", "value": 1.1, "unit": "%"}, {"measurement": "inhibition", "setting": "[17]; compound 0.2 µM", "value": -0.2, "unit": "%"}, {"measurement": "inhibition", "setting": "[18]; compound 0.02 µM", "value": 3.9, "unit": "%"}, {"measurement": "inhibition", "setting": "[18]; compound 0.2 µM", "value": 3.9, "unit": "%"}, {"measurement": "inhibition", "setting": "[19]; compound 0.02 µM", "value": -4.7, "unit": "%"}, {"measurement": "inhibition", "setting": "[19]; compound 0.2 µM", "value": -3.5, "unit": "%"}, {"measurement": "inhibition", "setting": "[20]; compound 0.02 µM", "value": 5.6, "unit": "%"}, {"measurement": "inhibition", "setting": "[20]; compound 0.2 µM", "value": 34.5, "unit": "%"}, {"measurement": "inhibition", "setting": "[21]; compound 0.02 µM", "value": -3.1, "unit": "%"}, {"measurement": "inhibition", "setting": "[21]; compound 0.2 µM", "value": -3.1, "unit": "%"}, {"measurement": "inhibition", "setting": "[22]; compound 0.02 µM", "value": -0.7, "unit": "%"}, {"measurement": "inhibition", "setting": "[22]; compound 0.2 µM", "value": -1.2, "unit": "%"}, {"measurement": "inhibition", "setting": "[23]; compound 0.02 µM", "value": 9.6, "unit": "%"}, {"measurement": "inhibition", "setting": "[23]; compound 0.2 µM", "value": -1.9, "unit": "%"}, {"measurement": "inhibition", "setting": "[24]; compound 0.02 µM", "value": -0.7, "unit": "%"}, {"measurement": "inhibition", "setting": "[24]; compound 0.2 µM", "value": -3.2, "unit": "%"}, {"measurement": "inhibition", "setting": "[25]; compound 0.02 µM", "value": -4.8, "unit": "%"}, {"measurement": "inhibition", "setting": "[25]; compound 0.2 µM", "value": -1.6, "unit": "%"}, {"measurement": "inhibition", "setting": "[26]; compound 0.02 µM", "value": -6.7, "unit": "%"}, {"measurement": "inhibition", "setting": "[26]; compound 0.2 µM", "value": -6.3, "unit": "%"}, {"measurement": "inhibition", "setting": "[27]; compound 0.02 µM", "value": 37.5, "unit": "%"}, {"measurement": "inhibition", "setting": "[27]; compound 0.2 µM", "value": 85, "unit": "%"}, {"measurement": "inhibition", "setting": "[28]; compound 0.02 µM", "value": 6.7, "unit": "%"}, {"measurement": "inhibition", "setting": "[28]; compound 0.2 µM", "value": -1.1, "unit": "%"}, {"measurement": "inhibition", "setting": "[29]; compound 0.02 µM", "value": 2.2, "unit": "%"}, {"measurement": "inhibition", "setting": "[29]; compound 0.2 µM", "value": 7.5, "unit": "%"}, {"measurement": "inhibition", "setting": "[30]; compound 0.02 µM", "value": 0.4, "unit": "%"}, {"measurement": "inhibition", "setting": "[30]; compound 0.2 µM", "value": -0.4, "unit": "%"}, {"measurement": "inhibition", "setting": "[31]; compound 0.02 µM", "value": -19.1, "unit": "%"}, {"measurement": "inhibition", "setting": "[31]; compound 0.2 µM", "value": -7.5, "unit": "%"}, {"measurement": "inhibition", "setting": "[32]; compound 0.02 µM", "value": 13.8, "unit": "%"}, {"measurement": "inhibition", "setting": "[32]; compound 0.2 µM", "value": 36.1, "unit": "%"}, {"measurement": "inhibition", "setting": "[33]; compound 0.02 µM", "value": 6.9, "unit": "%"}, {"measurement": "inhibition", "setting": "[33]; compound 0.2 µM", "value": -0.1, "unit": "%"}, {"measurement": "inhibition", "setting": "[34]; compound 0.02 µM", "value": -4.7, "unit": "%"}, {"measurement": "inhibition", "setting": "[34]; compound 0.2 µM", "value": -1.4, "unit": "%"}]}]}
